Laboratory results from patent US20240051954A1, “PYRROLO[3,2-B]PYRIDINE DERIVATIVES USEFUL IN TREATING CONDITIONS ASSOCIATED WITH CGAS” (NOVARTIS AG, priority 2020, published 2024).

molecular target: human truncated cGAS enzyme (147-522 human cGAS) (Homo sapiens (Human), UniProt Q8N884); assay: Quantification of cGAS protein inhibition (cGAMP formation, LC-MS/MS); format: biochemical; details: 30 nM enzyme, 45 bp dsDNA (ISD) 5 μM, GTP and ATP 0.5 mM each, 1 h at room temperature; potential mixture of co-existing tautomers and/or racemates
Experimental: Example 52: Quantification of cGAS Protein Inhibition
A reagent buffer was prepared in filtered and autoclaved water according to the following: • 50 mM Tris-buffer pH 7.5 (1 M Tris-buffer pH 7.5, Invitrogen, Cat. No. 15567-027); • 50 mM NaCl (5 M NaCl, Sodium Chloride Solution, Sigma, 59222C-); • 5 mM MgCl2 (1 M MgCl2, Sigma, M1028); • 0.1 mM ZnCl2 (Zinc Chloride [7646-85-7], powder, Cell Culture Tested, Sigma, Z-0152); and • 0.001% Tween 20 (TWEEN 20, Sigma Aldrich, P1379-).
A buffer for the cGAS enzyme was prepared in filtered and autoclaved water according to the following: • 50 mM Tris-buffer pH 7.5; • 5 mM MgCl2; and • 0.001% Tween 20.
Compounds were dispensed to a […]. The human truncated cGAS enzyme (4.2 mg/mL 147-522 human cGAS, MW 43,909 g/mol) was stored in 50 mM Tris, 500 mM NaCl, 5% (v/v) glycerol at pH 8 and diluted in the cGAS buffer enzyme shortly before use. The enzyme solution was transferred into the reagent buffer to give a final concentration of 30 nM. The reaction was started by mixing the enzyme with ISD (a 45 bp double stranded DNA, MW 27,670 g/mol, 5 mM), GTP and ATP to a final concentration of 5 μM, 0.5 mM and 0.5 mM respectively in a final volume of 10 μl. The reaction plates were then centrifuged at 1000 rpm for 1 minute and incubated at room temperature for 1 h. After 1 h of incubation, [^15N5]-2′3′-cGAMP to a final concentration of 200 nM and 30 μL of 100% acetonitrile/0.175% of TFA were added to the reaction mixture. The plates were centrifuged at 1000 rpm for 1 minute before being sealed for 3 seconds at 170° C. using a ThermoScientific sealer (ALPS™ 50V) and an aluminum sealing cover (Pierce Seal, 4titude, Product Code: 4TI-0531).
The concentration of cGAMP was measured on a LC-MS/MS system consisting of a THERMO Dionex Ultimate LC system with a high pressure pump, an autosampler, a column heating compartment (Reinach, Switzerland) and a SCIEX Triple Quad 5500 (Framingham, MA, USA) mass spectrometer for detection. The sample plates were centrifuged for 10 minutes at 2000 rpm. Up to three plates were placed in the autosampler for injection. An aliquot of 10 μL of each sample was injected on an XBridge BEH Amide 3.5 μm, 2.1×50 mm column (P/N 186004859) with an XBridge BEH Amide 5 μm 2.1×5 mm VanGuard Cartridge (P/N 186007760) pre-column (both WATERS, MA, USA) held at 40° C. An isocratic flow of 1.0 mL/min solvent (60% ACN, 8 mM ammonium acetate, 5 mM ammonium hydroxide, 0.04% acetic acid) was applied and sprayed into the ion source of the mass spectrometers. The MS parameters were optimized based on the properties of the compounds to be detected and run in positive multi-reaction mode (MRM) based on the mass transitions. LC and MS parameters were also optimized to allow for a sample-to-sample measuring time of approximately 75 sec and a run time of 8 hours per 384-well plate. All data were analyzed with Excel; and the dose response curves were generated using the auto fitting function of XLfit. The IC50 was determined by plotting the cGAMP concentration ratio (cGAMP divided by the internal standard [^15N5]-2′3′-cGAMP) versus the concentration of compound.

human truncated cGAS enzyme (147-522 human cGAS), sequence (Q8N884 147-522): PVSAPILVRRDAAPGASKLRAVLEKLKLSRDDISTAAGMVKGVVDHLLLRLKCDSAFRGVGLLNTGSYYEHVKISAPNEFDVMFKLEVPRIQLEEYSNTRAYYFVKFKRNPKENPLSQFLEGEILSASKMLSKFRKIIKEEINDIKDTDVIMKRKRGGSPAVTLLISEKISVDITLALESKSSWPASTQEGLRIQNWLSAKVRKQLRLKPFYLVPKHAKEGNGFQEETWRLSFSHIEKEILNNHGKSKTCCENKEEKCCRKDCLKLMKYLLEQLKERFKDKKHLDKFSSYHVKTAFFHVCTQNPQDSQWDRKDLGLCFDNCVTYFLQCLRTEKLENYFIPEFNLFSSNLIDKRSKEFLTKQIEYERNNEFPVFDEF

Row | SMILES | IC50 [nM]
1 | COc1nc2c(-c3cn[nH]c3)c(-c3nnc(C(F)(F)F)[nH]3)n(C)c2cc1Cl [Example 1, 6-chloro-5-methoxy-1-methyl-3-(1H-pyrazol-4-yl)-2-(5-(trifluoromethyl)-4H-1,2,4-triazol-3-yl)-1H-pyrrolo[3,2-b]pyridine] | 76
2 | COc1nc2c(-c3cn[nH]c3)c(-c3nnc(C(C)(F)F)[nH]3)[nH]c2cc1Cl [Example 3, 6-chloro-2-(5-(1,1-difluoroethyl)-4H-1,2,4-triazol-3-yl)-5-methoxy-3-(1H-pyrazol-4-yl)-1H-pyrrolo[3,2-b]pyridine] | 32
3 | COCC(F)(F)c1nnc(-c2c(-n3ccnc3)c3nc(OC)c(Cl)cc3n2C)[nH]1 [Example 30, 6-chloro-2-(5-(1,1-difluoro-2-methoxyethyl)-4H-1,2,4-triazol-3-yl)-3-(1H-imidazol-1-yl)-5-methoxy-1-methyl-1H-pyrrolo[3,2-b]pyridine] | 186
4 | COc1nc2c(-n3ccnc3)c(-c3nnc(C(=O)N(C)C)[nH]3)n(C)c2cc1Cl [Example 17, 5-(6-chloro-3-(1H-imidazol-1-yl)-5-methoxy-1-methyl-1H-pyrrolo[3,2-b]pyridin-2-yl)-N,N-dimethyl-4H-1,2,4-triazole-3-carboxamide] | 116
5 | COc1nc2c(-c3cn[nH]c3)c(-c3nnc(C(C)=O)[nH]3)[nH]c2cc1Cl [Example 6, 1-(5-(6-chloro-5-methoxy-3-(1H-pyrazol-4-yl)-1H-pyrrolo[3,2-b]pyridin-2-yl)-4H-1,2,4-triazol-3-yl)ethan-1-one] | 66
6 | COc1nc2c(-c3cn[nH]c3)c(-c3nnc[nH]3)n(C)c2cc1Cl [Example 14, 6-chloro-5-methoxy-1-methyl-3-(1H-pyrazol-4-yl)-2-(4H-1,2,4-triazol-3-yl)-1H-pyrrolo[3,2-b]pyridine] | 3520
7 | COCC(c1nnc(-c2c(-c3cn[nH]c3)c3nc(OC)c(Cl)cc3n2C)[nH]1)N(C)C (centres unmarked) [Example 37, 1-(5-(6-chloro-5-methoxy-1-methyl-3-(1H-pyrazol-4-yl)-1H-pyrrolo[3,2-b]pyridin-2-yl)-4H-1,2,4-triazol-3-yl)-2-methoxy-N,N-dimethylethan-1-amine] | 123
8 | COc1nc2c(-c3cn[nH]c3)c(-c3nnc(F)[nH]3)n(C)c2cc1Cl [Example 9, 6-chloro-2-(5-fluoro-4H-1,2,4-triazol-3-yl)-5-methoxy-1-methyl-3-(1H-pyrazol-4-yl)-1H-pyrrolo[3,2-b]pyridine] | 267
9 | COc1nc2c(-c3cn[nH]c3)c(-c3nnc(C(=O)N(C)C)[nH]3)[nH]c2cc1Cl [Example 16, 5-(6-chloro-5-methoxy-3-(1H-pyrazol-4-yl)-1H-pyrrolo[3,2-b]pyridin-2-yl)-N,N-dimethyl-4H-1,2,4-triazole-3-carboxamide] | 30
10 | COc1nc2c(-n3ccnc3)c(-c3nnc(C(OC)C(F)(F)F)[nH]3)n(C)c2cc1Cl (centres unmarked) [Example 26, 6-chloro-3-(1H-imidazol-1-yl)-5-methoxy-1-methyl-2-(5-(2,2,2-trifluoro-1-methoxyethyl)-4H-1,2,4-triazol-3-yl)-1H-pyrrolo[3,2-b]pyridine] | 107
11 | COCC(O)c1nnc(-c2c(-n3ccnc3)c3nc(OC)c(Cl)cc3n2C)[nH]1 (centres unmarked) [Example 29, 1-(5-(6-chloro-3-(1H-imidazol-1-yl)-5-methoxy-1-methyl-1H-pyrrolo[3,2-b]pyridin-2-yl)-4H-1,2,4-triazol-3-yl)-2-methoxyethan-1-ol] | 295
12 | COCC(c1nnc(-c2c(-n3ccnc3)c3nc(OC)c(Cl)cc3n2C)[nH]1)N(C)C (centres unmarked) [Example 36, 1-(5-(6-chloro-3-(1H-imidazol-1-yl)-5-methoxy-1-methyl-1H-pyrrolo[3,2-b]pyridin-2-yl)-4H-1,2,4-triazol-3-yl)-2-methoxy-N,N-dimethylethan-1-amine] | 454
13 | COc1nc2c(-n3ccnc3)c(-c3nnc(F)[nH]3)n(C)c2cc1Cl [Example 33, 6-chloro-2-(5-fluoro-4H-1,2,4-triazol-3-yl)-3-(1H-imidazol-1-yl)-5-methoxy-1-methyl-1H-pyrrolo[3,2-b]pyridine] | 332

Next, values leading:

Row | IC50 [nM] | SMILES
14 | 741 | Cn1c(-c2nnc(C(F)(F)F)[nH]2)c(-c2cn[nH]c2)c2nc(O)c(Cl)cc21 [Example 50, 6-chloro-1-methyl-3-(1H-pyrazol-4-yl)-2-(5-(trifluoromethyl)-4H-1,2,4-triazol-3-yl)-1H-pyrrolo[3,2-b]pyridin-5-ol]
15 | 98 | COc1nc2c(-c3cn[nH]c3)c(-c3nnc(C(=O)N(C)C)[nH]3)n(C)c2cc1Cl [Example 43, 5-(6-chloro-5-methoxy-1-methyl-3-(1H-pyrazol-4-yl)-1H-pyrrolo[3,2-b]pyridin-2-yl)-N,N-dimethyl-4H-1,2,4-triazole-3-carboxamide]
16 | 80 | COc1nc2c(-n3ccnc3)c(-c3nnc(C(F)(F)F)[nH]3)[nH]c2cc1Cl [Example 46, 6-chloro-3-(1H-imidazol-1-yl)-5-methoxy-2-(5-(trifluoromethyl)-4H-1,2,4-triazol-3-yl)-1H-pyrrolo[3,2-b]pyridine]
17 | 384 | COc1nc2c(-n3ccnc3)c(-c3nnc(C(F)(F)F)[nH]3)n(C)c2cc1Cl [Example 45]
18 | 66 | COc1nc2c(-c3cn[nH]c3)c(-c3nnc(C(C)=O)[nH]3)n(C)c2cc1Cl [Example 42, 1-(5-(6-chloro-5-methoxy-1-methyl-3-(1H-pyrazol-4-yl)-1H-pyrrolo[3,2-b]pyridin-2-yl)-4H-1,2,4-triazol-3-yl)ethan-1-one]
19 | 308 | COc1nc2c(-n3ccnc3)c(-c3nnc(CN(C)C)[nH]3)n(C)c2cc1Cl [Example 51, 1-(5-(6-chloro-3-(1H-imidazol-1-yl)-5-methoxy-1-methyl-1H-pyrrolo[3,2-b]pyridin-2-yl)-4H-1,2,4-triazol-3-yl)-N,N-dimethylmethanamine]
20 | 101 | COc1nc2c(-n3ccnc3)c(-c3nnc(/C(C)=N/OCCO)[nH]3)n(C)c2cc1Cl [Example 40, (E/Z)-1-(5-(6-chloro-3-(1H-imidazol-1-yl)-5-methoxy-1-methyl-1H-pyrrolo[3,2-b]pyridin-2-yl)-4H-1,2,4-triazol-3-yl)ethan-1-one O-(2-hydroxyethyl)oxime]
